Assay results as given in US20260053750A1, “INHALABLE COMPOSITIONS OF CDK9 INHIBITORS” (THE REGENTS OF THE UNIVERSITY OF CALIFORNIA, priority 2022, published 2026).

Key:
[1] = encapsulation and release in microparticles of the invention; format: physicochemical
NFκB target genes = assay: suppression of IL-1β-induced primary inflammatory response genes in human cell culture; format: cell-based
Description: CDK9 inhibitors exert effects on the inflammatory response pathway. For example, the pharmacological CDK9 inhibitor flavopiridol effectively suppresses the activation of a broad range of primary inflammatory response genes, in human cell culture treated with IL-1β for 5 hours (see FIG. 1). Among the 67 different genes (out of 84 total NFκB target genes tested) that were induced by IL-1β, 59 were repressed by flavopiridol co-treatment (including the most-characterized pro-inflammatory cytokines such as IL-1β, Il-6, and TNF). The average magnitude of repression is >86% of maximum induction. […] Importantly, house-keeping genes and non-inducible genes are not affected by CDK9 inhibition short term, indicating potential reduction in side effects.

[2] = cited from earlier work
[3] = system: TNF-stimulated luciferase reporter expression, driven by a NF-kB responsive promoter, in HEK293 cells; assay: NF-kB luciferase reporter bioactivity assay; format: cell-based, Human; conditions: 300 nM flavopiridol, 0.6 nM TNF-α, 24 h
Description: The bioactivity of flavopiridol released from ILDF particles was determined by a luciferase reporter assay as described previously. ILDF particles (18.94 mg) containing 0.190% (w/w) flavopiridol was dissolved in DMEM with 10% FBS to a stock solution of 8.9×10^4 nM flavopiridol. The bioactivity of flavopiridol was measured by its ability to suppress TNF-stimulated luciferase reporter expression, driven by a NF-kB responsive promoter. Human embryonic kidney 293 cells (HEK293) cells (ATCC) harboring a NF-kB-driven luciferase reporter were seeded in 96-well plates (10,000 cells/well in triplicates) 24 hours before the experiment. Cells were then treated with 100 μL of media containing 0.6 nM recombinant human TNF-α (Peprotech), in the presence or absence of various amount of dissolved flavopiridol formulation or blank formulation equivalent. After 24 h, 100 μL of 2× lysis buffer (Invitrogen) containing luciferase substrate was added directly to each well. Luminescence was measured in a plate reader (SpectraMax iD3, Molecular Devices). Experiments were performed in triplicate (N=3) from one batch of particles, and results were reported as mean±SD.

[4] = system: lung fibrosis mouse model (bleomycin); assay: bleomycin lung fibrosis mouse model, i.p. treatment; format: in vivo, C57B/L6 mice; conditions: vs BLM+ vehicle control
Description: The effects of flavopiridol on lung inflammation and fibrosis were assessed in a lung fibrosis mouse model. C57B/L6 mice were treated with bleomycin (BLM) by microsprayer. At day 7 after BLM treatment, alveolar damage became apparent in the treated mice. At day 9, the mice were divided into 4 groups of 8 animals each. Each group received its corresponding treatment every other day starting at Day 9. At Day 30, the animals were sacrificed and assessed. One group received only phosphate buffer saline (PBS). One group received 28 mg/kg nitedanib by intraperitoneal injection (i.p.). One group received 2.5 mg/kg of flavopiridol i.p. and one group received 28 mg/kg idebenone i.p. Survival and lung morphology were assessed at day 30. […] Lung tissue sections from the treated animals were stained with Masson's trichome staining protocol and exemplary images are shown in FIG. 8D.

[5] = system: pulmonary fibrosis in mice using bleomycin; assay: bleomycin pulmonary fibrosis in mice, inhaled flavopiridol; format: in vivo; conditions: every two days from eight days post-bleomycin, 14-day treatment
Description: Our experimental model involved the induction of pulmonary fibrosis in mice using bleomycin, followed by the administration of inhaled flavopiridol during the early fibrotic phase of the model. Eight days post-intratracheal instillation of bleomycin, mice were treated with either a vehicle or inhaled flavopiridol every two days. After a 14-day treatment course, lung tissues were harvested and subjected to histological and biochemical analysis. A notable loss of body weight observed in bleomycin-exposed mice served as an indicator of successful fibrosis induction (FIG. 9).

[6] = 2.5 mg/kg i.p. every other day from Day 9, Day 30

| SMILES | encapsulation and release in microparticles [1] | average magnitude of repression (NFκB target genes; human cell culture treated with IL-1β for 5 hours, flavopiridol co-treatment) | number of IL-1β-induced genes repressed by flavopiridol co-treatment (NFκB target genes; of 67 genes induced by IL-1β (84 NFκB target genes tested), human cell culture, IL-1β for 5 hours) | in-vivo half-life [2] | TNF-α-stimulated luciferase activity [3] | hydroxyproline level [4, 6] | percentage of stained area (Masson's trichome, lung sections) [4, 6] | survival rate ([4]; 2.5 mg/kg i.p. every other day from Day 9, to Day 30) | body weight ([4]; 2.5 mg/kg i.p. every other day from Day 9) | hydroxyproline levels [5] | survival rate ([5]; vs vehicle group) |
| --- | --- | --- | --- | --- | --- | --- | --- | --- | --- | --- | --- |
| CCc1cnn2c(NCc3ccc[n+]([O-])c3)cc(N3CCCC[C@H]3CCO)nc12 [Dinaciclib] | not encapsulated effectively or released appropriately |  |  |  |  |  |  |  |  |  |  |
| CN1CC[C@H](c2c(O)cc(O)c3c(=O)cc(-c4ccccc4Cl)oc23)[C@H](O)C1 [flavopiridol, 2-(2-chlorophenyl)-5,7-dihydroxy-8-[(3S,4R)-3-hydroxy-1-methyl-4-piperidinyl]-4-chromenone] |  | > 86 % of maximum induction | 59 | under 6 hours | the luciferase activation was suppressed | statistically significant lower level of hydroxyproline | statistically significant decrease in percentage of stained area | statistically significant difference in survival rate | generally maintained a higher body weight | appeared to suppress the bleomycin-induced increase of hydroxyproline levels | higher survival rate |
